In ChEMBL document CHEMBL1201862, “PubChem BioAssay data set” (2004):
Activity calls are given as the source filed them.

What was measured:
[1] = Counterscreen for inhibitors of Trypanosoma brucei methionyl tRNA synthetase (MetRS): Luminescence-based cell-based high throughput dose response assay to identify compounds that are cytotoxic to Jurkat human T lymphocyte cells.; type: functional
[2] = molecular target: T1, Methionyl-tRNA synthetase, putative (Trypanosoma brucei brucei, UniProt Q38C91); type: functional, Trypanosoma brucei brucei strain 927/4 GUTat10.1
[3] = molecular target: T1, Methionyl-tRNA synthetase, putative; type: functional, Trypanosoma brucei brucei strain 927/4 GUTat10.1; remark: listed apart in the source
[4] = Late stage counterscreen for inhibitors of Trypanosoma brucei methionyl tRNA synthetase (MetRS): Luminescence-based cell-based high throughput dose response assay to identify compounds that are cytotoxic to Jurkat human T lymphocyte cells.; type: functional
[5] = molecular target: COUP transcription factor 2 (Homo sapiens, UniProt P24468); experiment: Luminescence-based cell-based high throughput dose response assay to identify inhibitors of COUP-TFII (NR2F2).; type: functional;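 further: HEK293 cells transiently cotransfected with COUP-TFII expression vector and reporter; luciferase reporter luminescence driven by COUP-TFII from the pX2-168 reporter plasmid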
NS3 = NS3 (Hepatitis C virus, UniProt A3EZJ3); experiment: NS3h DNA-binding inhibition IC50 – biochemical, fluorescence polarization, ChemBridge library, dose response (AID 743264)
[6] = growth inhibition of replicating M. tuberculosis, dose response, counter-screen, dry powder, IC90 (AID 651617); type: functional; settings: Mycobacterium tuberculosis
[7] = inhibitors of non-replicating M. tuberculosis, dose response, luciferase, dry powder (AID 651620); type: functional; settings: Mycobacterium tuberculosis
[8] = inhibitors of non-replicating M. tuberculosis, dose response, luciferase, dry powder (AID 651619); type: functional; settings: Mycobacterium tuberculosis
[9] = HepG2 cell viability loss – cherry-picked samples, cytotoxicity control, dose response (AID 1053183); type: functional, cell-based
[10] = HEK293 cell viability loss – cherry-picked samples, cytotoxicity control, dose response (AID 1053185); type: functional, cell-based
Protein Wnt-3a = Protein Wnt-3a (Mus musculus, UniProt P27467); experiment: SAR analysis of small molecule antagonists of Gli-SUFU in a Wnt3a luminescent reporter assay.; type: functional
[11] = molecular target: Endoplasmic reticulum aminopeptidase 1 (Homo sapiens, UniProt Q9NZ08); experiment: inhibition of human ERAP1 enzyme activity – biochemical, cherry-pick, set 2, plate reader, dose response (AID 743314)
[12] = cervical cancer cell viability loss – HeLa, 24 h, plate reader, powder samples, set 3, cytotoxicity control, dose response (AID 651864); type: functional, cell-based
[13] = molecular target: Oxysterols receptor LXR-beta (Homo sapiens, UniProt P55055); type: functional, cell-based;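 further: agonist activity at LXR measured by a cell-based luminescence readout across a dose range, run as a counterscreen for daf-12 agonists; HEK293 cells with Gal4-LXR fusion and GAL4-driven luciferase reporter; potency for activation of Gal4-LXR reporter so compounds are agonists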
HT-1080 = experiment: HT1080 cell viability loss – fluorescence readout (AID 620); type: functional, cell-based; settings: Homo sapiens
[14] = molecular target: Luciferin 4-monooxygenase (Photinus pyralis, UniProt P08659); experiment: Counter Screen for Luciferase-based Assay Positives. [Related pubchem assays: 620, 618, 411 ]
[15] = viability of HCT116 lacking mutant beta-catenin – cell-based, human colon tumor, dose response (AID 1045); type: functional;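 further: HCT116 colon tumor cells with beta catenin knocked out; cells exposed to compound for 60 hours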
[16] = viability of PTEN-deleted HCT116 cells – cell-based, HCT116 PTEN knockout, dose response (AID 1047); type: functional;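 further: HCT116 colon tumor cells with PTEN knocked out; cells exposed to compound for 60 hours before readout; potency for loss of cell viability measured by luminescence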
[17] = viability loss in HepG2 hepatoma cells – cell-based, ATP luminescence, cherry-pick, activator set 2, cytotoxicity control, dose response (AID 1053143); type: functional
[18] = A Cell-Based Confirmatory Screen for Compounds that Inhibit VEEV TC-83 (4).; type: functional
[19] = A Cell-Based Confirmatory Screen for Compounds that Inhibit VEEV, TC-83 (5).; type: functional
[20] = molecular target: T2, Microphthalmia-associated transcription factor (Homo sapiens, UniProt O75030); experiment: reducers of TRPM1 reporter luminescence, concentration series – cell-based, SK-MEL-5, cherry-picked, set 3, MITF inhibitor project, dose response (AID 493073); type: functional;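 further: SK-MEL-5 melanoma cells with luciferase driven by the MITF target TRPM1 promoter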
T2 sequence (O75030 whole entry): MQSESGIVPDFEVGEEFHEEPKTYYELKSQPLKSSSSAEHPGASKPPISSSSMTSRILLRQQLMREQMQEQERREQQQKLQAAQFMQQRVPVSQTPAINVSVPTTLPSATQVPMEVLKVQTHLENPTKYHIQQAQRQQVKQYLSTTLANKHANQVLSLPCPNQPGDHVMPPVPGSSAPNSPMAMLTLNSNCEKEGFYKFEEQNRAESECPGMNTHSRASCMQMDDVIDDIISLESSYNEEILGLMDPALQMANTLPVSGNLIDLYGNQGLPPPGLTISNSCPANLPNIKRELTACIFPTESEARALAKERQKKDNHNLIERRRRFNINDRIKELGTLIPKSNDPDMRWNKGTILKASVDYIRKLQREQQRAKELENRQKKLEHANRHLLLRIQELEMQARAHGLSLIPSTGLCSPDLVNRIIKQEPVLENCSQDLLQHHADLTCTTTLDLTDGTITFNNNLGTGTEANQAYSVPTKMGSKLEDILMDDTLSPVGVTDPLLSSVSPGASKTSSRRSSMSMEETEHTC

Cytochrome P450 3A4 = Cytochrome P450 3A4 (Homo sapiens, UniProt P08684);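 further: CYP3A4 tested as one member of a cytochrome P450 panel screen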
[21] = molecular target: Matrix metalloproteinase-14 (Homo sapiens, UniProt P50281); experiment: Dose Response confirmation of uHTS hits for a small molecule inhibitors of MT1-MMP activation in a fluorescence assay set 1.; type: functional

T1 sequence (Q38C91 whole entry): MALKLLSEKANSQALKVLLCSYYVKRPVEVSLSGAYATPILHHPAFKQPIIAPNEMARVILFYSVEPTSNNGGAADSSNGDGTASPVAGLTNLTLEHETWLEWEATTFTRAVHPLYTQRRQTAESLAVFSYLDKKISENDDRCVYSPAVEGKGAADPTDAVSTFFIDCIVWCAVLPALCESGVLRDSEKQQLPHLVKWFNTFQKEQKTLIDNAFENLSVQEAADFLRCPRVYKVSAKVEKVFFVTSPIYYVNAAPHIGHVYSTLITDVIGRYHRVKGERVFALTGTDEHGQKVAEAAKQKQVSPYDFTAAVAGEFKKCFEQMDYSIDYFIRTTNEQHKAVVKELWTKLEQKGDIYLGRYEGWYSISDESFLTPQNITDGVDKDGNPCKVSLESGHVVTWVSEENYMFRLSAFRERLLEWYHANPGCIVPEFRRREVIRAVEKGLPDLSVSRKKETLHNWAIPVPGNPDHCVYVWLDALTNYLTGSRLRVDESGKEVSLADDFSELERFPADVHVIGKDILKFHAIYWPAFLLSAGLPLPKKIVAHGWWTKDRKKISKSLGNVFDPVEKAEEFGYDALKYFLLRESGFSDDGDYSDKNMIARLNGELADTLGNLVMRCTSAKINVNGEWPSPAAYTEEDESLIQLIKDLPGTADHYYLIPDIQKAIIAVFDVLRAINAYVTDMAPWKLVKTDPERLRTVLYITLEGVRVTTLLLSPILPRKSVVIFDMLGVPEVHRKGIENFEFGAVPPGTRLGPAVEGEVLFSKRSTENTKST
Sequence of NS3 (A3EZJ3 whole entry): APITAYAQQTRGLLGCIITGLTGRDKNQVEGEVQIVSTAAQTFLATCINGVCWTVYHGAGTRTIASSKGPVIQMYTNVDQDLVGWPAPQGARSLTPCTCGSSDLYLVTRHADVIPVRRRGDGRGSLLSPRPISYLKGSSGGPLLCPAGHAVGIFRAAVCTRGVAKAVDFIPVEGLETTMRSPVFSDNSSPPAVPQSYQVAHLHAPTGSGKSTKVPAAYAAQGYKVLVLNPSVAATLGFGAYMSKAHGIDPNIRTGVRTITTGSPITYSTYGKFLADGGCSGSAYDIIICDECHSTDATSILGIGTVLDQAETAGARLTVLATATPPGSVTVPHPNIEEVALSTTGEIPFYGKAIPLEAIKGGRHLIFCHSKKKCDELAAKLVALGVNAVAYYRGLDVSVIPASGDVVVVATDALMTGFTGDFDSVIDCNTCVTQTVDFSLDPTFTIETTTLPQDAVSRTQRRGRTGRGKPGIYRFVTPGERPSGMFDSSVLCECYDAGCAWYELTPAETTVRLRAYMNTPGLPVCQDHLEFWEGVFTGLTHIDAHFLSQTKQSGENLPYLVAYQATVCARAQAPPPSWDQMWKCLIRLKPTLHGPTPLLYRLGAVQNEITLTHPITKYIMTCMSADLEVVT
Sequence of Endoplasmic reticulum aminopeptidase 1 (Q9NZ08 whole entry): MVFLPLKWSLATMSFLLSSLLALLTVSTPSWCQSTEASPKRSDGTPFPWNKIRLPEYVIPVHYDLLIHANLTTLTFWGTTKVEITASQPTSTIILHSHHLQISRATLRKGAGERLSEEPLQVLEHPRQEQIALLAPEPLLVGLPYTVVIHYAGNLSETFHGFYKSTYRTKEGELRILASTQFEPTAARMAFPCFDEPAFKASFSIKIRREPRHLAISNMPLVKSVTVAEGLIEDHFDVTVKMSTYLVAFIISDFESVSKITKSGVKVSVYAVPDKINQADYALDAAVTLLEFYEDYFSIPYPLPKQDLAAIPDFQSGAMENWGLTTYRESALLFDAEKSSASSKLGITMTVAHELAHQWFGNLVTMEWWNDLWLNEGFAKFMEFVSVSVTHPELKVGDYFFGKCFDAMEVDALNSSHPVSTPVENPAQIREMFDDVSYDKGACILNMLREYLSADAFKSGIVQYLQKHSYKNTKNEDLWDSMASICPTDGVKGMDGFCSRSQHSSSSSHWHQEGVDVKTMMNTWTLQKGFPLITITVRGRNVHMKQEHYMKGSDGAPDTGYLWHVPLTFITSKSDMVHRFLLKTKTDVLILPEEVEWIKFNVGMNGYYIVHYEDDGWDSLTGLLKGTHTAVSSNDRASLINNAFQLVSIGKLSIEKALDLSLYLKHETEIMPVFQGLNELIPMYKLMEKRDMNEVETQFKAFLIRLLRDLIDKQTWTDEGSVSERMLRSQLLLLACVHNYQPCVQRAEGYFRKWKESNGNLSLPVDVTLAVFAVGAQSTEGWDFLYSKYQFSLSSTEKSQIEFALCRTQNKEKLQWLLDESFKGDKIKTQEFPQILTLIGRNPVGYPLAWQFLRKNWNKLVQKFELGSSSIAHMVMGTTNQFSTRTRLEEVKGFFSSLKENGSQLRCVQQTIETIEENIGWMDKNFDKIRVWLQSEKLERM
Sequence of Luciferin 4-monooxygenase (P08659 whole entry): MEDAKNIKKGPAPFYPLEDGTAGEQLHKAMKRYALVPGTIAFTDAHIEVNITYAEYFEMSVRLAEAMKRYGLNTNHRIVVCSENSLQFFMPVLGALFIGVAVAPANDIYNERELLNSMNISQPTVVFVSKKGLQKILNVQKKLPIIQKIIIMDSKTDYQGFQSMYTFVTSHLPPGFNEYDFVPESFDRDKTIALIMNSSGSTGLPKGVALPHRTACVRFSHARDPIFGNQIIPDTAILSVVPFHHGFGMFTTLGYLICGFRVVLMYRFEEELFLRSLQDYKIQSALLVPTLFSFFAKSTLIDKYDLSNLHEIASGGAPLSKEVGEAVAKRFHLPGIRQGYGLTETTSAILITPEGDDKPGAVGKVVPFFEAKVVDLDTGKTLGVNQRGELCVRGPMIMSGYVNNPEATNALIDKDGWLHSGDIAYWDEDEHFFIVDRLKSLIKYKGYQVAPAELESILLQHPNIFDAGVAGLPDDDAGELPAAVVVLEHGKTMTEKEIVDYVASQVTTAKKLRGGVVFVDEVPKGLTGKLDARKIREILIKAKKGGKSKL
Sequence of COUP transcription factor 2 (P24468 whole entry): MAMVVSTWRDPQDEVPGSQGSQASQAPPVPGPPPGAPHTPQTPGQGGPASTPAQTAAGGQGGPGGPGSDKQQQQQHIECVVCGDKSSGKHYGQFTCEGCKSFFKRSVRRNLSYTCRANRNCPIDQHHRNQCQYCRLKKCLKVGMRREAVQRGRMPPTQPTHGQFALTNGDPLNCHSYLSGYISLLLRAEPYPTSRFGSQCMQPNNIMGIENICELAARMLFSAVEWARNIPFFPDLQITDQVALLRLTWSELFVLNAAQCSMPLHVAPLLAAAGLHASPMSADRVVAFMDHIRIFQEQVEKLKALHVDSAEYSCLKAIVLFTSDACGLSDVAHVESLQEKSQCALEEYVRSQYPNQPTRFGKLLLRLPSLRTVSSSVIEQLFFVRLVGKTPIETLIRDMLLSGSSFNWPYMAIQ
Sequence of Protein Wnt-3a (P27467 whole entry): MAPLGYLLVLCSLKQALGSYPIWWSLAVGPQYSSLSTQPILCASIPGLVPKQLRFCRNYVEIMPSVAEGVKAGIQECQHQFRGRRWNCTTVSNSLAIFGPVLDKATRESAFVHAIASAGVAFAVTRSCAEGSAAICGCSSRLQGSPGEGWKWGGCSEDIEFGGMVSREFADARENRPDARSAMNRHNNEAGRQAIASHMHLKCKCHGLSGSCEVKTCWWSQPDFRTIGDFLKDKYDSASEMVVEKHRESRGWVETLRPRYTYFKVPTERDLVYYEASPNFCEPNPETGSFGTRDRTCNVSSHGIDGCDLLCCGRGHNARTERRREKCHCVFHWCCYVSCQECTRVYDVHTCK
Sequence of Oxysterols receptor LXR-beta (P55055 whole entry, the tested form may be a part): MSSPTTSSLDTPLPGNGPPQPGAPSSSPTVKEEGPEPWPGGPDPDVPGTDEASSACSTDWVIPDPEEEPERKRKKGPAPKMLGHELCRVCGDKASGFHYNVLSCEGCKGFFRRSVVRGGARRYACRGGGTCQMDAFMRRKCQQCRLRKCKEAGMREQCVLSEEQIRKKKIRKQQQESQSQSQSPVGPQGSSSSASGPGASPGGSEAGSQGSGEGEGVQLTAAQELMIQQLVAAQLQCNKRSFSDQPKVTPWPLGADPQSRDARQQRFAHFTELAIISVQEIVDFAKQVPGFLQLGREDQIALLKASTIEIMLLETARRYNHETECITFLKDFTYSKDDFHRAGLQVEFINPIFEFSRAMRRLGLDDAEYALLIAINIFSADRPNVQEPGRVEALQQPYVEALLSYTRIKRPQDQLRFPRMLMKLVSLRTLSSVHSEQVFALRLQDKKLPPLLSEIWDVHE
Sequence of Cytochrome P450 3A4 (P08684 whole entry): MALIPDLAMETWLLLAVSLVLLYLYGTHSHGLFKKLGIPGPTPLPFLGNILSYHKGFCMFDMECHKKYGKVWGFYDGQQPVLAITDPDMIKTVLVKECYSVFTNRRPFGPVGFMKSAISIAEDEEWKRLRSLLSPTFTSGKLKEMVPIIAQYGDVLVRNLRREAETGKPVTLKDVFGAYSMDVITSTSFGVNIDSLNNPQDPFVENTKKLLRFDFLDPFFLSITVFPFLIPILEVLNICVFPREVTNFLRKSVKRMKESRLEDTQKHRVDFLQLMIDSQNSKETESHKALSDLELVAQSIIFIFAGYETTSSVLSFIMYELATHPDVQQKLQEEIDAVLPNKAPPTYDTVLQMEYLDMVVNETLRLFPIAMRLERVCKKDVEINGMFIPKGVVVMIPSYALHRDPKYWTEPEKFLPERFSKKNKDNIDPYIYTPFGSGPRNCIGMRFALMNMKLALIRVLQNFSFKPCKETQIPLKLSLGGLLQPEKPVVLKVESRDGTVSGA

CC(=O)c1c[nH]c(C(=O)NCc2cccc(C(F)(F)F)c2)c1
IC50 [1]: 83.3 µM (inactive)
IC50 [2]: 2.07 µM (active)
IC50 [3]: 1.16 µM (active)
IC50 [4]: > 83.3 µM (inactive)

c1ccc2cc3[nH]c(CNc4nc(N5CCOCC5)nc5c4ncn5-c4ccsc4)nc3cc2c1
IC50 [5]: 6.35 µM (active)

Cc1ccc(C)n1-c1cc(C(=O)O)ccc1O
IC50 (NS3): 50.4 µM (active)

COc1ccc(-c2nnc(SCc3ccccn3)o2)cc1
IC90 [6]: 62 µM (active)
IC90 [7]: 4 µM (active)
IC90 [8]: 4 µM (active)

N#Cc1cccc(-c2ccc([C@H]3[C@@H]4CN(C(=O)Nc5ccc(C(F)(F)F)cc5)C[C@H]3N4)cc2)c1
AC50 [9]: 36.1 µM (active)
AC50 [10]: > 52 µM (inactive)

O=C(Nc1cc(N2CCCCC2)ncn1)c1ccc(Br)o1
IC50 (Protein Wnt-3a): > 21.8 µM (inactive)

Cc1cc(=O)oc2c(CN3CCCCC3)c(O)ccc12
AC50 [11]: 5.18 µM (active)

CCn1nccc1/N=C/c1ccc(N2CCCC2)cc1
AC50 [12]: > 160 µM (inactive)

Clc1cccc(-c2nnc(-c3ccccc3)o2)c1
EC50 [13]: > 67.5 µM (inactive)
EC50 (HT-1080): > 50 µM (not active)
EC50 [14]: 50.7 µM (active)
EC50 [15]: 26.3 µM (active)
EC50 [16]: 49 µM (active)

c1csc(-c2ccc(N3CCOCC3)nn2)c1
AC50 [17]: 26 µM (active)

CCN1CCN(Cc2nc3ccc([N+](=O)[O-])cc3c(=O)n2-c2ccc(F)cc2)CC1
IC50 [18]: 0.6 µM (active)
IC50 [19]: 0.99 µM (active)

CC[n+]1c(/C=C/N(C)c2ccccc2)sc2ccc(Cl)cc21
AC50 [20]: 9.07 µM (active)
AC50 (Cytochrome P450 3A4): 17.8 µM (inconclusive)
IC50 [21]: > 80 µM (inactive)
